{
  "source": "patent EP2050437A1",
  "about": "“Improved pharmaceutical dry powder compositions for inhalation” (Laboratoires SMB, priority 2007, dated 2009)",
  "format_in_all_cases": "physicochemical",
  "key": {"[1]": {"test": "In vitro deposition / fine particle assessment with Multi-stage Liquid Impinger (MsLI), Aerolyzer device", "set-up": "Metered dose / Device / Throat / Stage 1 / Stage 2 / Stage 3 / Stage 4 / Filter: unit not given here", "details": "loaded dose=15mg; for FPD: Fine Particle Dose, aerodynamic diameter inferior to 5 µm", "method": "The Fine Particle Dose (FPD) has been determined by the method described in the European Pharmacopoeia 4 for the aerodynamic assessment of fine particle, using Apparatus C - Multi-stage Liquid Impinger (MsLI). A dry powder inhalation device (Aerolyzer®, Novartis, Switzerland) was filled with a No. 3 HPMC capsule (Capsugel, France) loaded with 15 mg powder. The flow rate was adjusted to a pressure drop of 4 kPa, as typical for inspiration by a patient, resulting in a flow rate of 100 l/min during 2.4 seconds. At least 3 Fine Particle Dose (FPD) determinations were performed on each formulation and analysis was carried out by a suitable and validated analytical HPLC method. In order to increase the UV absorptivity of the molecule, a derivatization method was applied. The suitable and validated quantification method is described in the USP 25. The HPLC system consisted of a High Performance Liquid Chromatography system (HP 1100 series, Agilent technologies, Belgium), equipped with a quartenary pump, an autosampler and a variable wavelength UV detector set at 365 nm. The separation system was a 30 cm x 3.9 mm stainless steel (5 µm particle size) reversed-phase C18 column (Alltima, Alltech, Belgium). Samples of 20 µl volume were injected. The mobile phase was prepared by dissolving 2 g of Tris(hydroxymethyl) aminomethane in 800 ml of water. After this, 20 ml of H2SO4 1 N was added and then the solution was diluted with acetonitrile to obtain 2 l, mixed and passed through a filter of 0.2 µm porosity. The flow rate was 1.2 ml/min. The mass of test substance retained at each stage was determined from the HPLC analysis of the recovered solutions. Starting at the filter, a cumulative mass deposition (undersize in percentage) vs. cut-off diameter of the respective stages was derived and the FPD was calculated by interpolating the mass of active ingredient less than 5 µm. […] It is considered to be directly proportional to the amount of drug able to reach the pulmonary tract in vivo, and consequently, the higher the value FPD, the higher the estimated lung deposition. […] Table 2: In vitro deposition study, with formulation given in example 1 vs. micronized tobramycin (raw material) (loaded dose=15mg, n=3)."}, "[2]": {"test": "Particle size distribution by laser diffraction, Spraytec with inhalation cell (simulated breathing)", "details": "agglomerates as at the exit of the DPI", "description": "However, it may be desirable for unstable (redispersible) agglomerates to be formed in the powder, and the size of the agglomerates may be as large as 10 µm or more. The size of particles in the powder, when considering the agglomerates, is to be taken as the size of the individual particles making up the agglomerate. The sizes of the individual particles and of the agglomerates may be determined using a suitable laser light diffraction techniques. For example, the higher compressed air values applied in the dispersion unit of the Mastersizer 2000® (Malvern, U.K.) (up to 4 bar), permit all the agglomerates to break down, especially for micron-sized powders, as is the case for DPI formulations. […] This allows the size properties of DPIs to be measured under simulated breathing conditions. For each formulation, the particle size distribution is measured by laser diffractometry, using a dry sampling system with a suitable SOP (Standard Operating Procedure), (Scirocco®, Mastersizer 2000, Malvern, UK) and a Spraytec, (Malvern). The particle size distribution measured with the Mastersizer 2000, Scirocco (Malvern) gives an indication of the size distribution of the individual particles of the powder composition as the powder agglomerates are broken down during the measuring process. […]"}, "[3]": {"test": "Particle size distribution by laser diffraction, Mastersizer 2000 with dry sampling (Scirocco)", "details": "individual particles, dry powder", "description": "However, it may be desirable for unstable (redispersible) agglomerates to be formed in the powder, and the size of the agglomerates may be as large as 10 µm or more. The size of particles in the powder, when considering the agglomerates, is to be taken as the size of the individual particles making up the agglomerate. The sizes of the individual particles and of the agglomerates may be determined using a suitable laser light diffraction techniques. For example, the higher compressed air values applied in the dispersion unit of the Mastersizer 2000® (Malvern, U.K.) (up to 4 bar), permit all the agglomerates to break down, especially for micron-sized powders, as is the case for DPI formulations. […] For each formulation, the particle size distribution is measured by laser diffractometry, using a dry sampling system with a suitable SOP (Standard Operating Procedure), (Scirocco®, Mastersizer 2000, Malvern, UK) and a Spraytec, (Malvern). […] The particle size distribution measured with the Mastersizer 2000, Scirocco (Malvern) gives an indication of the size distribution of the individual particles of the powder composition as the powder agglomerates are broken down during the measuring process. […]"}},
  "data": [
    {"smiles": "NC[C@H]1O[C@H](O[C@H]2[C@H](O)[C@@H](O[C@H]3O[C@H](CO)[C@@H](O)[C@H](N)[C@H]3O)[C@H](N)C[C@@H]2N)[C@H](N)C[C@@H]1O", "note": "[Micronized tobramycin, tobramycin]", "values": [
      {"measurement": "FPD", "setting": "[1]; n=3", "value": "5.5 ± 0.9", "unit": "mg"},
      {"measurement": "FPD", "setting": "[1]; n=3, listed as micronized tobramycin", "value": "around 5.5 mg"},
      {"measurement": "Metered dose", "setting": "[1]; n=3", "value": "12.9 ± 0.3"},
      {"measurement": "Filter", "setting": "[1]; mass deposited, n=3", "value": "1.4 ± 0.3"},
      {"measurement": "Stage 1", "setting": "[1]; mass deposited, n=3", "value": "0.9 ± 0.3"},
      {"measurement": "Stage 2", "setting": "[1]; mass deposited, n=3", "value": "0.6 ± 0.4"},
      {"measurement": "Stage 3", "setting": "[1]; mass deposited, n=3", "value": "2.1 ± 0.9"},
      {"measurement": "Stage 4", "setting": "[1]; mass deposited, n=3", "value": "1.7 ± 0.6"},
      {"measurement": "Throat", "setting": "[1]; mass deposited, n=3", "value": "0.3 ± 0.1"},
      {"measurement": "Device", "setting": "[1]; mass deposited, n=3, 100 l/min during 2.4 seconds", "value": "6.0 ± 0.7"},
      {"measurement": "particles having a diameter below 5.0 µm", "setting": "[2]", "value": 72, "unit": "%"},
      {"measurement": "mass median diameter (d(0.5))", "setting": "[3]", "value": "about 1.3 µm"}
    ]}
  ]
}
